From article PMC7400207, “It Takes Two: Dimerization Is Essential for the Broad-Spectrum Predatory and Defensive Activities of the Venom Peptide Mp1a from the Jack Jumper Ant Myrmecia pilosula” (Biomedicines, 2020)
Marks after values point to notes of the source that are not given here. Where no end group is shown, it is not given here.

How the values were obtained:
Drosophila melanogaster [1] = conditions: same assay; cited from earlier work
trypanosomes = conditions: cited from earlier work
From the text: However, the anthelmintic activity of the dimers was only observed at concentrations 10-fold higher than required for neuronal cell activation, cytotoxicity and hemolysis.

F11 cells = assay: FLIPR calcium assay, activation of F11 cells; type: cell-based
Description: F11 cells were cultured as previously described. Cells were maintained on Ham’s F12 media supplemented with 10% fetal bovine serum (FBS), 100 µM hypoxanthine, 0.4 µM aminopterin, and 16 µM thymidine (Hybri-MaxTM, Sigma Aldrich, North Ryde, Australia). Then, 384-well imaging plates (Corning) were seeded 48 h prior to imaging resulting in 90–95% confluence at imaging. Cells were incubated for 30 min with the Calcium 4 assay component A according to the manufacturer’s instructions (Molecular Devices, Sunnyvale, CA, USA) in physiological salt solution (PSS; composition in mM: 140 NaCl, 11.5 D-glucose, 5.9 KCl, 1.4 MgCl2, 1.2 NaH2PO4, 5 NaHCO3, 1.8 CaCl2, 10 HEPES) at 37°C. Fluorescence was measured using a fluorescent imaging plate reader (FLIPR^TETRA) equipped with a CCD camera (Excitation: 470–490 nm, Emission: […]) (Molecular Devices, Sunnyvale, CA, USA). Signals were read every second for 10 s before, and 300 s after the addition of peptides in PSS supplemented with 0.1% bovine serum albumin. All data are the mean ± SEM of assays performed in triplicate. Maximum–minimum fluorescence in the 300 s period after peptide addition was recorded as the response. Concentration–response data were fitted with a four-parameter Hill equation (variable slope) using GraphPad Prism 8 to obtain effective concentration (EC50) values.

HEK293 cells = conditions: HEK293, 24 h, resazurin; cited from earlier work
Description: (§1) Table 2 Summary of bioassay data for synthetic Mp1a and analogues, including effective concentration (EC50) for activation of F11 cells, concentrations that caused 50% inhibition (IC50) for inhibition of larval development of H. contortus; median lethal dose (LD50) for lethal insecticidal effects on D. melanogaster; concentrations required to induce 50% cell death (CC50) for effects on viability o | column: Cytotoxicity (CC50 µM) ^b

Drosophila melanogaster [2] = assay: Drosophila melanogaster microinjection assay; type: in vivo; conditions: intrathoracic injection, 50 nL, adult female flies, lethality at 24 h; three dose-response curves, ± SEM
Description: The insecticidal activity of the chemically synthesized 1a and analogues thereof were determined by injection into adult female D. melanogaster aged 3–5 days (mass 0.7–0.9 mg) as described previously. Analogues were dissolved in water and intrathoracically injected using pulled glass capillaries at a volume of 50 nL per fruit fly, and the results were compared against an equivalent injection volume of water alone. All injections were performed in the morning or early afternoon. At 24 h post-injection flies were monitored for lethality. Dose–response curves were constructed using 7–10 doses per analogue (each dose tested in eight flies) and three separate dose–response curves were constructed for each analogue. The lethality in the groups receiving the analogues were adjusted using the respective control group lethality using the Henderson-Tilton formula [20]. The median lethal dose (LD50) of each analogue was calculated based on the three dose–response curves using GraphPad Prism 8.0 [21]. One-way ANOVA followed by Dunnett’s multiple comparison test were used to compare LD50 values.

Haemonchus contortus = assay: microbe, parasite or virus in culture; type: cell-based; conditions: H. contortus Kirby isolate, egg to infective L3, 6 days, 26 °C; three experiments of duplicate assays, ± SEM; for 1a the component at higher concentrations (about 90% of population); read-out: Anthelmintic Activity (IC50), inhibition of larval development
Description: Sheep were infected with H. contortus Kirby isolate (field isolate from the University of New England Kirby Research Farm in 1986; susceptible to all commercial anthelmintics) and housed at the Commonwealth Scientific and Industrial Research Organisation (CSIRO) FD McMaster Laboratory, Armidale, NSW. All animal procedures were approved by the FD McMaster Animal Ethics Committee, CSIRO (Approval Number AEC 17/12, approval date 15.6.2017). Eggs were prepared from overnight fecal collection as described. In brief, feces were filtered through mesh filters, settled, and supernatant removed by vacuum. Eggs were recovered by density centrifugation using 10 and 25% (w/v) sucrose solutions, centrifuged at 650× g for 7 min. Eggs were recovered from the interface of the two sucrose layers, rinsed with distilled water, sterilized with bleach, rinsed again, and diluted to 4500 eggs/mL. Tylosin tartrate (800 μg/mL) and amphotericin B (25.0 μg/mL) were added, and eggs were used immediately for larval development assays.
Assays were conducted using 96-well microtitre plates, with each well containing 50 μL of 2% agar, 20 μL of egg solution and 20 μL of peptide solution in water. The commercial anthelmintic levamisole (Sigma Aldrich) was used as a positive control (final 1% v/v). Negative controls contained equivalent volumes of water or DMSO (final 1% v/v). Plates were incubated at 26 °C for six days. After 24 h, each well was fed with 10 μL of a nutrient solution containing Escherichia coli XL1-Blue1 (grown overnight at 37 °C) and growth medium. The growth medium consisted of yeast extract (1% w/v), Earle’s salt solution (10% v/v), saline solution (0.9% NaCl, w/v), and sodium bicarbonate (1 mM) in Luria-Bertani medium (LB). Larvae were killed and stained with Lugol’s iodine solution after six days. Larvae that had developed to the infective L3 stage were counted, and the numbers in treated assay wells were expressed as a percentage of the number of infective L3 stage larvae in multiple control wells. Concentrations that caused 50% inhibition (IC50 values) were calculated from three experiments of duplicate assays.

human red blood cells = conditions: cited from earlier work
Description: as §1, with “Hemolysis (HC50” for “Cytotoxicity (CC50”

[3] = test system: mouse dorsal root ganglion (DRG) cells; assay: Calcium imaging of mammalian sensory neurons; type: cell-based; conditions: 1 µM peptide, Fluo-4 calcium imaging, neuronal and non-neuronal cells
Description: Calcium imaging of a heterogenous population of mouse dorsal root ganglion (DRG) sensory neurons was performed as previously described. In brief, dorsal root ganglion (DRG) cells isolated from 4–8-week-old male C57BL/6 mice under ethics approval TRI/IMB/093/17 (University of Queensland Animal Ethics Committee, approval date 31/03/2017) were dissociated and then plated in Dulbecco’s modified Eagle’s medium (Gibco, Grand Island, NY, USA) containing 10% fetal bovine serum (FBS; Assaymatrix, Melbourne, Australia) and penicillin/streptomycin (Gibco) on a 96-well poly-D-lysine–coated culture plate (Corning, Lowell, MA, USA), and maintained overnight. Cells were loaded with Fluo-4 AM calcium indicator as per the manufacturer’s instructions (Thermo Fisher Scientific, Grand Island, NY, USA). After loading for 1 h, the dye solution was replaced with assay solution (Hanks’ balanced salt solution and 20 mM HEPES). Fluorescence corresponding to intracellular calcium ([Ca^2+]i) of typically 100–150 DRG cells per experiment was monitored in parallel using a Nikon Ti-E deconvolution inverted microscope, equipped with a Lumencor Spectra LED light source. Images were acquired at a 20× objective at one frame/s (excitation 485 nm; emission 521 nm). For each experiment, baseline fluorescence was monitored for 30 s and then a wash of assay solution was applied.

β-diguetoxin-Dc1a
LD50 (insecticidal potency) (Drosophila melanogaster [1]): 59 pmol/g

cupiennin-1a: broadly cytolytic peptide from the wandering spider Cupiennius salei (GFGALFKFLAKKVAKTVAKQAAKQGAKYVVNKQME; ends and bridges not checked; UniProt P83619 1-35, looked up)
Selectivity for trypanosomes over human red blood cells (trypanosomes): > 400 fold

CC[C@H](C)[C@H](N)C(=O)N[C@@H](CC(=O)O)C(=O)N[C@@H](Cc1c[nH]c2ccccc12)C(=O)N[C@@H](CCCCN)C(=O)N[C@@H](CCCCN)C(=O)N[C@H](C(=O)N[C@@H](CC(=O)O)C(=O)N[C@@H](Cc1c[nH]c2ccccc12)C(=O)N[C@@H](CCCCN)C(=O)N[C@@H](CCCCN)C(=O)N[C@H](C(=O)N[C@@H](CO)C(=O)N[C@@H](CCCCN)C(=O)N[C@@H](CCCCN)C(=O)N[C@H](C(=O)N[C@H]1CSSC[C@H](NC(=O)[C@@H](NC(=O)CNC(=O)[C@H](CCCCN)NC(=O)[C@H](CO)NC(=O)[C@@H](NC(=O)[C@H](CC(C)C)NC(=O)CNC(=O)[C@@H](NC(=O)[C@@H](N)CC(C)C)[C@@H](C)CC)C(C)C)[C@@H](C)O)C(=O)N[C@@H](C(C)C)C(=O)N[C@@H](CC(C)C)C(=O)N[C@@H](C(C)C)C(=O)N[C@@H](CCCCN)C(=O)N[C@@H]([C@@H](C)O)C(=O)N[C@@H](C(C)C)C(=O)N[C@H](C(=O)N[C@@H](CCCCN)C(=O)N[C@@H](CCCCN)C(=O)N[C@H](C(=O)N[C@@H](CC(C)C)C(=O)N[C@@H](CCCCN)C(=O)N[C@@H](CCC(N)=O)C(N)=O)C(C)C)CSSC[C@@H](C(=O)N[C@@H](CCCCN)C(=O)N[C@@H](Cc2ccccc2)C(=O)N[C@@H](CC(C)C)C(N)=O)NC(=O)[C@H](C)NC(=O)[C@H](CCCCN)NC(=O)[C@H](CC(C)C)NC(=O)[C@H](CCSC)NC(=O)[C@H](C(C)C)NC(=O)[C@H](CCCCN)NC1=O)[C@@H](C)O)C(C)C)C(C)C [Analogue 2a]
Concentration at which cytolysis (rapid increase in fluorescence followed by decrease to or below baseline) was observed (F11 cells; F11 cells, FLIPR): ≥ 1 µM | EC50 (F11 cells; F11 cells, FLIPR, Calcium 4 dye, max-min fluorescence in 300 s after peptide addition, PSS with 0.1% BSA, mean ± SEM, triplicate, read-out: Neuronal Cell Activation (EC50)): 0.9 ± 0.08 µM | Fold less active than native Mp1a (1a), F11 cell activation (F11 cells; ratio of EC50 values): equipotent | Cytotoxicity (CC50) (HEK293 cells): > 10 µM | Insecticidal Activity (LD50) (Drosophila melanogaster [2]): > 600 pmol/g | IC50 (Haemonchus contortus): 35.8 ± 1.9 µM | Hemolysis (HC50) (human red blood cells): > 10 µM

ω-hexatoxin-Hv1a
LD50 (insecticidal potency) (Drosophila melanogaster [1]): 9 pmol/g

CC[C@H](C)[C@H](N)C(=O)N[C@@H](CC(=O)O)C(=O)N[C@@H](Cc1c[nH]c2ccccc12)C(=O)N[C@@H](CCCCN)C(=O)N[C@@H](CCCCN)C(=O)N[C@H](C(=O)N[C@@H](CC(=O)O)C(=O)N[C@@H](Cc1c[nH]c2ccccc12)C(=O)N[C@@H](CCCCN)C(=O)N[C@@H](CCCCN)C(=O)N[C@H](C(=O)N[C@@H](CO)C(=O)N[C@@H](CCCCN)C(=O)N[C@@H](CCCCN)C(=O)N[C@H](C(=O)N[C@H]1CSSC[C@@H](C(=O)N[C@@H](CCCCN)C(=O)N[C@@H](Cc2ccccc2)C(=O)N[C@@H](CC(C)C)C(N)=O)NC(=O)[C@H](C)NC(=O)[C@H](CCCCN)NC(=O)[C@H](CC(C)C)NC(=O)[C@H](CCSC)NC(=O)[C@H](C(C)C)NC(=O)[C@H](CCCCN)NC(=O)[C@@H](NC(=O)[C@@H](NC(=O)[C@H](CCCCN)NC(=O)[C@H](CCCCN)NC(=O)[C@H](CO)NC(=O)[C@@H](NC(=O)[C@H](CCCCN)NC(=O)[C@H](CCCCN)NC(=O)[C@H](Cc2c[nH]c3ccccc23)NC(=O)[C@H](CC(=O)O)NC(=O)[C@@H](NC(=O)[C@H](CCCCN)NC(=O)[C@H](CCCCN)NC(=O)[C@H](Cc2c[nH]c3ccccc23)NC(=O)[C@H](CC(=O)O)NC(=O)[C@@H](N)[C@@H](C)CC)C(C)C)C(C)C)[C@@H](C)O)CSSC[C@@H](C(=O)N[C@@H](CCCCN)C(=O)N[C@@H](Cc2ccccc2)C(=O)N[C@@H](CC(C)C)C(N)=O)NC(=O)[C@H](C)NC(=O)[C@H](CCCCN)NC(=O)[C@H](CC(C)C)NC(=O)[C@H](CCSC)NC(=O)[C@H](C(C)C)NC(=O)[C@H](CCCCN)NC1=O)[C@@H](C)O)C(C)C)C(C)C [Analogue 5a]
Concentration at which cytolysis (rapid increase in fluorescence followed by decrease to or below baseline) was observed (F11 cells; F11 cells, FLIPR): ≥ 10 µM | Insecticidal Activity (LD50) (Drosophila melanogaster [2]): 415.4 ± 29.6 ^a pmol/g | Effect on [Ca2+]i of DRG cells [3]: activated all DRG cells and caused dye leakage
